Laboratory results from patent publication US20100285959A1, “HERBICIDAL MIXTURES” (priority 2006, published 2010).

Key:
wild chamomile (MATCH) [1] = test: Test 24 growth chamber, postemergence; type: in vivo, Matricaria chamomilla; conditions: 17 DAA
Experimental: (§1) Plants were treated postemergence at the 2-4 leaf growth stage, and each treatment was replicated three times. […] Plants were watered as needed. […] Results for barley and wheat are the means across varieties of the three replicates, and results for the weeds are the means of the three replicates.

[2] = test system: common lambsquarters (CHEAL); test: Test 24 growth chamber, postemergence; type: in vivo, Chenopodium album; conditions: 17 DAA
Experimental: as §1

wild buckwheat (POLCO) [3] = test: Test 24 growth chamber, postemergence; type: in vivo, Polygonum convolvulus; conditions: 17 DAA
Experimental: as §1

field poppy (PAPRH) [4] = test: Test 24 growth chamber, postemergence; type: in vivo, Papaver rhoeas; conditions: 17 DAA
Experimental: as §1

Russian thistle (SASKR) [5] = test: Test 24 growth chamber, postemergence; type: in vivo, Salsola kali; conditions: 17 DAA
Experimental: as §1

common chickweed (STEME) [6] = test: Test 24 growth chamber, postemergence; type: in vivo, Stellaria media; conditions: 17 DAA
Experimental: as §1

redroot pigweed (AMARE) [7] = test: Test 24 growth chamber, postemergence; type: in vivo, Amaranthus retroflexus; conditions: 17 DAA
Experimental: as §1

galium (GALAP) [8] = test: Test 24 growth chamber, postemergence; type: in vivo, Galium aparine; conditions: 17 DAA
Experimental: as §1

field violet (VIOAR) [9] = test: Test 24 growth chamber, postemergence; type: in vivo, Viola arvensis; conditions: 17 DAA
Experimental: as §1

wild mustard (SINAR) [10] = test: Test 24 growth chamber, postemergence; type: in vivo, Sinapis arvensis; conditions: 17 DAA
Experimental: as §1

kochia (KCHSC) [11] = test: Test 24 growth chamber, postemergence; type: in vivo, Kochia scoparia; conditions: 17 DAA
Experimental: as §1

kochia (KCHSC) [12] = test: Test 22 growth chamber, postemergence; type: in vivo, Kochia scoparia; conditions: 25 DAA; 2,4-D or MCPA alone 250 g a.i./ha
Experimental: (§2) A test was conducted to evaluate the effects on winter barley (HORVW, Hordeum vulgare L.), winter wheat (TRZAW, Triticum aestivum L.), and several weed species of mixtures of Compound 2 with the commercial herbicides (2,4-dichlorophenoxy)acetic acid (2,4-D) and (4-chloro-2-methylphenoxy)acetic acid (MCPA), auxin mimics. […] Plants were treated postemergence at the 2-4 leaf growth stage, except KCHSC, SASKR and STEME which were in the 4-8 leaf growth stage. Each treatment was replicated one time. […] Plants were watered as needed. […] Results are from single replicates.

common chickweed (STEME) [13] = test: Test 23 growth chamber, postemergence; type: in vivo, Stellaria media; conditions: 21 DAA; 2,4-D or MCPA alone 250 g a.i./ha
Experimental: (§3) A test was conducted to evaluate the effects on winter barley (HORVW, Hordeum vulgare L.), winter wheat (TRZAW, Triticum aestivum L.), and several weed species of mixtures of Compound 2 with the commercial herbicides (2,4-dichlorophenoxy)acetic acid (2,4-D) and (4-chloro-2-methylphenoxy)acetic acid (MCPA), auxin mimics. […] Plants were treated postemergence at the 2-4 leaf growth stage, and each treatment was replicated three times. […] Plants were watered as needed. […] Results are means of the three replicates.

Russian thistle (SASKR) [14] = test: Test 23 growth chamber, postemergence; type: in vivo, Salsola kali; conditions: 21 DAA; 2,4-D or MCPA alone 250 g a.i./ha
Experimental: as §3

field poppy (PAPRH) [15] = test: Test 23 growth chamber, postemergence; type: in vivo, Papaver rhoeas; conditions: 21 DAA; 2,4-D or MCPA alone 250 g a.i./ha
Experimental: as §3

[16] = test system: common lambsquarters (CHEAL); test: Test 23 growth chamber, postemergence; type: in vivo, Chenopodium album; conditions: 21 DAA; 2,4-D or MCPA alone 250 g a.i./ha
Experimental: as §3

winter wheat (TRZAW) [17] = test: Test 22 growth chamber, postemergence; type: in vivo, Triticum aestivum; conditions: 25 DAA; 2,4-D or MCPA alone 250 g a.i./ha
Experimental: as §2

winter barley (HORVW) [18] = test: Test 23 growth chamber, postemergence; type: in vivo, Hordeum vulgare; conditions: 21 DAA; 2,4-D or MCPA alone 250 g a.i./ha
Experimental: as §3

redroot pigweed (AMARE) [19] = test: Test 22 growth chamber, postemergence; type: in vivo, Amaranthus retroflexus; conditions: 25 DAA; 2,4-D or MCPA alone 250 g a.i./ha
Experimental: as §2

wild chamomile (MATCH) [20] = test: Test 23 growth chamber, postemergence; type: in vivo, Matricaria chamomilla; conditions: 21 DAA; 2,4-D or MCPA alone 250 g a.i./ha
Experimental: as §3

wild buckwheat (POLCO) [21] = test: Test 23 growth chamber, postemergence; type: in vivo, Polygonum convolvulus; conditions: 21 DAA; 2,4-D or MCPA alone 250 g a.i./ha
Experimental: as §3

Russian thistle (SASKR) [22] = test: Test 22 growth chamber, postemergence; type: in vivo, Salsola kali; conditions: 25 DAA; 2,4-D or MCPA alone 250 g a.i./ha
Experimental: as §2

wild mustard (SINAR) [23] = test: Test 23 growth chamber, postemergence; type: in vivo, Sinapis arvensis; conditions: 21 DAA; 2,4-D or MCPA alone 250 g a.i./ha
Experimental: as §3

common chickweed (STEME) [24] = test: Test 22 growth chamber, postemergence; type: in vivo, Stellaria media; conditions: 25 DAA; 2,4-D or MCPA alone 250 g a.i./ha
Experimental: as §2

wild buckwheat (POLCO) [25] = test: Test 22 growth chamber, postemergence; type: in vivo, Polygonum convolvulus; conditions: 25 DAA; 2,4-D or MCPA alone 250 g a.i./ha
Experimental: as §2

[26] = test system: common lambsquarters (CHEAL); test: Test 22 growth chamber, postemergence; type: in vivo, Chenopodium album; conditions: 25 DAA; 2,4-D or MCPA alone 250 g a.i./ha
Experimental: as §2

field violet (VIOAR) [27] = test: Test 23 growth chamber, postemergence; type: in vivo, Viola arvensis; conditions: 21 DAA; 2,4-D or MCPA alone 250 g a.i./ha
Experimental: as §3

wild mustard (SINAR) [28] = test: Test 22 growth chamber, postemergence; type: in vivo, Sinapis arvensis; conditions: 25 DAA; 2,4-D or MCPA alone 250 g a.i./ha
Experimental: as §2

galium (GALAP) [29] = test: Test 22 growth chamber, postemergence; type: in vivo, Galium aparine; conditions: 25 DAA; 2,4-D or MCPA alone 250 g a.i./ha
Experimental: as §2

winter wheat (TRZAW) [30] = test: Test 20 growth chamber, postemergence; type: in vivo, Triticum aestivum; conditions: 25 DAA; 2,4-D or MCPA alone 250 g a.i./ha
Experimental: (§4) A test was conducted to evaluate the effects on winter barley (HORVW, Hordeum vulgare L.) and winter wheat (TRZAW, Triticum aestivum L.) of mixtures of Compound 2 with the commercial herbicides (2,4-dichlorophenoxy)acetic acid (2,4-D) and (4-chloro-2-methylphenoxy)acetic acid (MCPA), auxin mimics. […] Plants were treated postemergence at the 2-leaf growth stage, and each treatment was replicated a total of four times (three times in the loam/sand blend and one time in RediEarth). […] Plants were watered as needed. […] Results are the means of the four replicates.

winter wheat (TRZAW) [31] = test: Test 23 growth chamber, postemergence; type: in vivo, Triticum aestivum; conditions: 21 DAA; 2,4-D or MCPA alone 250 g a.i./ha
Experimental: as §3

winter barley (HORVW) [32] = test: Test 22 growth chamber, postemergence; type: in vivo, Hordeum vulgare; conditions: 25 DAA; 2,4-D or MCPA alone 250 g a.i./ha
Experimental: as §2

redroot pigweed (AMARE) [33] = test: Test 23 growth chamber, postemergence; type: in vivo, Amaranthus retroflexus; conditions: 21 DAA; 2,4-D or MCPA alone 250 g a.i./ha
Experimental: as §3

kochia (KCHSC) [34] = test: Test 23 growth chamber, postemergence; type: in vivo, Kochia scoparia; conditions: 21 DAA; 2,4-D or MCPA alone 250 g a.i./ha
Experimental: as §3

galium (GALAP) [35] = test: Test 23 growth chamber, postemergence; type: in vivo, Galium aparine; conditions: 21 DAA; 2,4-D or MCPA alone 250 g a.i./ha
Experimental: as §3

winter barley (HORVW) [36] = test: Test 20 growth chamber, postemergence; type: in vivo, Hordeum vulgare; conditions: 25 DAA; 2,4-D or MCPA alone 250 g a.i./ha
Experimental: as §4

## Nc1c(Cl)c(F)nc(OCC(=O)O)c1Cl [Fluroxypyr]
Wild chamomile (MATCH) [1]; Fluroxypyr 62 g a.i./ha
  MATCH Obs (scale 0 to 100): 60
Wild chamomile (MATCH) [1]; Fluroxypyr 125 g a.i./ha
  MATCH Obs (scale 0 to 100): 65
[2]; Fluroxypyr 62 g a.i./ha
  CHEAL Obs (scale 0 to 100): 47
[2]; Fluroxypyr 125 g a.i./ha
  CHEAL Obs (scale 0 to 100): 58
Wild buckwheat (POLCO) [3]; Fluroxypyr 62 g a.i./ha
  POLCO Obs (scale 0 to 100): 68
Wild buckwheat (POLCO) [3]; Fluroxypyr 125 g a.i./ha
  POLCO Obs (scale 0 to 100): 75
Field poppy (PAPRH) [4]; Fluroxypyr 62 g a.i./ha
  PAPRH Obs (scale 0 to 100): 65
Field poppy (PAPRH) [4]; Fluroxypyr 125 g a.i./ha
  PAPRH Obs (scale 0 to 100): 73
Russian thistle (SASKR) [5]; Fluroxypyr 62 g a.i./ha
  SASKR Obs (scale 0 to 100): 75
Russian thistle (SASKR) [5]; Fluroxypyr 125 g a.i./ha
  SASKR Obs (scale 0 to 100): 75
Common chickweed (STEME) [6]; Fluroxypyr 62 g a.i./ha
  STEME Obs (scale 0 to 100): 75
Common chickweed (STEME) [6]; Fluroxypyr 125 g a.i./ha
  STEME Obs (scale 0 to 100): 83
Redroot pigweed (AMARE) [7]; Fluroxypyr 62 g a.i./ha
  AMARE Obs (scale 0 to 100): 67
Redroot pigweed (AMARE) [7]; Fluroxypyr 125 g a.i./ha
  AMARE Obs (scale 0 to 100): 77
Galium (GALAP) [8]; Fluroxypyr 62 g a.i./ha
  GALAP Obs (scale 0 to 100): 80
Galium (GALAP) [8]; Fluroxypyr 125 g a.i./ha
  GALAP Obs (scale 0 to 100): 85
Field violet (VIOAR) [9]; Fluroxypyr 62 g a.i./ha
  VIOAR Obs (scale 0 to 100): 73
Field violet (VIOAR) [9]; Fluroxypyr 125 g a.i./ha
  VIOAR Obs (scale 0 to 100): 82
Wild mustard (SINAR) [10]; Fluroxypyr 62 g a.i./ha
  SINAR Obs (scale 0 to 100): 75
Wild mustard (SINAR) [10]; Fluroxypyr 125 g a.i./ha
  SINAR Obs (scale 0 to 100): 75
Kochia (KCHSC) [11]; Fluroxypyr 62 g a.i./ha
  KCHSC Obs (scale 0 to 100): 68
Kochia (KCHSC) [11]; Fluroxypyr 125 g a.i./ha
  KCHSC Obs (scale 0 to 100): 73

## Cc1cc(Cl)ccc1OCC(=O)O [MCPA]
Kochia (KCHSC) [12]
  Postemergence KCHSC Obs: 55
Common chickweed (STEME) [13]
  Postemergence STEME Obs: 55
Russian thistle (SASKR) [14]
  Postemergence SASKR Obs: 43
Field poppy (PAPRH) [15]
  Postemergence PAPRH Obs: 57
[16]
  Postemergence CHEAL Obs: 70
Winter wheat (TRZAW) [17]
  Postemergence TRZAW Obs: 10
Winter barley (HORVW) [18]
  Postemergence HORVW Obs: 35
Redroot pigweed (AMARE) [19]
  Postemergence AMARE Obs: 65
Wild chamomile (MATCH) [20]
  Postemergence MATCH Obs: 53
Wild buckwheat (POLCO) [21]
  Postemergence POLCO Obs: 52
Russian thistle (SASKR) [22]
  Postemergence SASKR Obs: 45
Wild mustard (SINAR) [23]
  Postemergence SINAR Obs: 65
Common chickweed (STEME) [24]
  Postemergence STEME Obs: 50
Wild buckwheat (POLCO) [25]
  Postemergence POLCO Obs: 40
[26]
  Postemergence CHEAL Obs: 65
Field violet (VIOAR) [27]
  Postemergence VIOAR Obs: 60
Wild mustard (SINAR) [28]
  Postemergence SINAR Obs: 75
Galium (GALAP) [29]
  Postemergence GALAP Obs: 50
Winter wheat (TRZAW) [30]
  Postemergence TRZAW Obs: 18
Winter wheat (TRZAW) [31]
  Postemergence TRZAW Obs: 32
Winter barley (HORVW) [32]
  Postemergence HORVW Obs: 25
Redroot pigweed (AMARE) [33]
  Postemergence AMARE Obs: 63
Kochia (KCHSC) [34]
  Postemergence KCHSC Obs: 67
Galium (GALAP) [35]
  Postemergence GALAP Obs: 43
Winter barley (HORVW) [36]
  Postemergence HORVW Obs: 33
